The text below walks through data of patent publication US20260102501A1, “ANTI-CANCER NUCLEAR HORMONE RECEPTOR-TARGETING COMPOUNDS” (Nuvation Bio Inc., priority 2022, published 2026).

Broadly, the IC50 is the concentration that inhibits the measured activity by half.

Changes are numbered by the printed parent chain. Structures can show the parent of a compound that is named as a salt. Where two headings read alike, the source gives them in different places.

The test system of test [1] is LNCap cells. Kind of test: Cell viability assay (CellTiterGlo). Particulars: Homo sapiens, 144 h. The format is cell-based.
The subject of test [2] is T47D cells. Kind of test: Cell viability assay (CellTiterGlo). The class given is cell-based. The conditions noted are these: Homo sapiens, 144 h.
The test system of test [3] is IEC6 cells. Nature of the test: Cell viability assay (CellTiterGlo). Particulars: Rattus norvegicus, IEC-6, 144 h, read-out: IEC-6 (IC50, nM). A general note: In ATP-based viability assays light output follows the ATP content of the culture.
The target of test [4] is T1, AR (cytosol from LnCaP cells) (Homo sapiens, UniProt P10275, T878A).
T1 sequence (P10275 1-920 T878A): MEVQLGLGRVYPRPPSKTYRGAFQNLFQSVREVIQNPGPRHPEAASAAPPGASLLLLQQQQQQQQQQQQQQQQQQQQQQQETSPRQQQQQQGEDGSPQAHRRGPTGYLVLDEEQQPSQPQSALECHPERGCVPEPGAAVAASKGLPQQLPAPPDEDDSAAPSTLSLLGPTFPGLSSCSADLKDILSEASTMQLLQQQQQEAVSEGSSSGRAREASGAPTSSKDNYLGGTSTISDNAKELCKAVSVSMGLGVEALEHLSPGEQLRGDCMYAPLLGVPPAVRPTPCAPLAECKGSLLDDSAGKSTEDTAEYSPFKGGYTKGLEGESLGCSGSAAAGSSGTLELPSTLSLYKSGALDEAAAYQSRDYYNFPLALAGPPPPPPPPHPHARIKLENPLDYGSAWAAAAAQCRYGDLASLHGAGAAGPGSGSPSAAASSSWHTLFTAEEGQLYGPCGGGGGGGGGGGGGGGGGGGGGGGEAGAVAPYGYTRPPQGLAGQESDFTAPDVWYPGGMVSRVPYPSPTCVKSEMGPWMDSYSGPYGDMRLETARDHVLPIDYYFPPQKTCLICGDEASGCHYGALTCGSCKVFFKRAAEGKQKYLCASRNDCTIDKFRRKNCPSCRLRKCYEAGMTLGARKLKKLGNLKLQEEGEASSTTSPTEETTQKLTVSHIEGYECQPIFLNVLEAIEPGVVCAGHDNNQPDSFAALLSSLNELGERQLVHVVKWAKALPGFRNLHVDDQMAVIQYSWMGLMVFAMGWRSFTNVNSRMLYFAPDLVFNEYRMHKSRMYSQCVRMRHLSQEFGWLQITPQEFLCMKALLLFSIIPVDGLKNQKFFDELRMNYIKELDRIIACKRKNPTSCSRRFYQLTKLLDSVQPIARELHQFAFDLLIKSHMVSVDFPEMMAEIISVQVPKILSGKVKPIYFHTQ
Kind of test: AR binding assay (3H-R1881 displacement).
Procedure: The plate was then centrifuged at 3000 rpm for 30 minutes at 4° C.

Test [5] deals with T2, GR (cytosol from IM-9 cells) (Homo sapiens, UniProt P04150).
T2 sequence (P04150 1-777): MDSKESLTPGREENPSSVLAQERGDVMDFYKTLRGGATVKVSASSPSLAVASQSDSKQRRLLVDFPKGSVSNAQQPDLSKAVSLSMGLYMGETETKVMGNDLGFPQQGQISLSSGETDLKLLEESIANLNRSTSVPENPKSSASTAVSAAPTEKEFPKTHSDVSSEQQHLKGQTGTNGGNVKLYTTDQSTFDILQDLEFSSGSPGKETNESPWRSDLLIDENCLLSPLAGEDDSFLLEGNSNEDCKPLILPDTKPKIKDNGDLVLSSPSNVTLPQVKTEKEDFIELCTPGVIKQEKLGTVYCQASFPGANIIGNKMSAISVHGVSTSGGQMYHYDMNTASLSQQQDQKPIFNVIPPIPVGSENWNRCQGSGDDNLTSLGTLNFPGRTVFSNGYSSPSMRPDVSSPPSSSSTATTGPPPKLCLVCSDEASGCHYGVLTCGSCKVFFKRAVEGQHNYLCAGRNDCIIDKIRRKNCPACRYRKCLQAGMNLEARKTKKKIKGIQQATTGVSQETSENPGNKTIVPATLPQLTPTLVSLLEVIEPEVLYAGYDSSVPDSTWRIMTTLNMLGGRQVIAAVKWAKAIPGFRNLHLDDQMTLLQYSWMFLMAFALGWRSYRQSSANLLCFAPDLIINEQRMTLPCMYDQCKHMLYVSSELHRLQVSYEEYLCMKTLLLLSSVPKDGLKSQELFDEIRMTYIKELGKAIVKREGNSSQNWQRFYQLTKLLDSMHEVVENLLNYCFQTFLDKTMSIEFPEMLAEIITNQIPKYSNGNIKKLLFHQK
Nature of the test: GR binding assay (3H-Dexamethasone displacement).

Test [6] has as its target T3, full-length androgen receptor (HEK293 cells stably expressing) (Homo sapiens, UniProt P10275).
T3 sequence (P10275 1-920): T1 sequence (P10275 1-920 T878A) with A878T
Nature of the test: AR antagonism assay (luciferase reporter).

For test [7], the system named is 22Rv1 cells. Kind of test: Cell viability assay (CellTiterGlo). The conditions noted are these: Homo sapiens, 22Rv1, 144 h, read-out: 22RV1 (IC50, nM).
Procedure: Cell viability assay: LNCap, 22Rv1, MCF7, MDAMB361, T47D, and IEC6 cells were seeded at a density of 500-2000 cells/well in 96 well plates, and a ‘T0’ (timepoint 0) was included along with the assay plate. The plates were then incubated at 37° C., 5% CO2 in a cell culture incubator overnight. On the next day, the ‘T0’ plate was assayed using CellTiterGlo (Promega, Inc) according to the manufacturer's instructions. The appropriate compounds were diluted in DMSO and added to the assay plate (final DMSO concentration of 0.1-0.2%) on the next day. The assay plates were incubated for 6 days at 37° C., 5% CO2. After the incubation period, the plates were assayed using CellTiterGlo (Promega, Inc) according to the manufacturer's instructions and luminescence was read on the En Vision plate reader. […] GraphPadPrism was used to analyze the data and determine GI50/IC50 values.
Test [8] has as its target T4, ligand binding domain of the glucocorticoid receptor (HEK293 cells stably expressing) (Homo sapiens, UniProt P04150).
T4 sequence (P04150 524-758 limits assumed): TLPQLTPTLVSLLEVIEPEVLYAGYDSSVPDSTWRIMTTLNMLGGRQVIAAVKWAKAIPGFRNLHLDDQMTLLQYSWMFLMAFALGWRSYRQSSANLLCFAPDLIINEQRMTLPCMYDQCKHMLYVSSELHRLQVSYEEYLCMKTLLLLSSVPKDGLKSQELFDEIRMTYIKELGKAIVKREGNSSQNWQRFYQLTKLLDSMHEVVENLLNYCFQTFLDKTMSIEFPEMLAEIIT
Kind of test: GR antagonism assay (luciferase reporter). (A reporter such as luciferase makes a cellular process visible.)
Procedure: HEK293 cells stably expressing the ligand binding domain of the glucocorticoid receptor were seeded at a density of 40000 cells/well in the assay plate. The assay plate was then incubated at 37° C., 5% CO2 for 30 minutes. Dexamethasone was added to the assay plate at 1.5 nM final concentration and the assay plate incubated at 37° C., 5% CO2 for 20 h. After the incubation period, Dual-glo luciferase reagent was added to the assay plate and mixed at room temperature for 20 minutes on an orbital shaker, before reading out on the En Vision plate reader. 50 μL of Stop & Glo reagent was added to assay plate, mixed at room temperature for 20 minutes, and read on the Envision plate reader.

Where [9] appears, read: 6 days incubation, CellTiterGlo, read-out: LNCap (IC50).
Where [10] appears, read: 6 days incubation, CellTiterGlo, read-out: T47D (IC50).

Consider `CC[C@@]1(OC(=O)N2CCN(CCCCCCN(C)c3ccc([C@H]4C[C@@]5(C)[C@@H](CC[C@]5(OC(C)=O)C(C)=O)[C@@H]5CCC6=CC(=O)CCC6=C54)cc3)CC2)C(=O)OCc2c1cc1n(c2=O)Cc2cc3cc(O)ccc3nc2-1` [Compound 57, (S)-4-ethyl-9-hydroxy-3,14-dioxo-3,4,12,14-tetrahydro-1H-pyrano[3′,4′:6,7]indolizino[1,2-b]quinolin-4-yl 4-(6-((4-((8S,11R,13S,14S,17R)-17-acetoxy-17-acetyl-13-methyl-3-oxo-2,3,6,7,8,11,12,13,14,15,16,17-dodecahydro-1H-cyclopenta[a]phenanthren-11-yl)phenyl)(methyl)amino)hexyl)piperazine-1-carboxylate], for which the 50% inhibitory concentration (IC50) in test [1] (setting [9]) was 101 to 1000 nM; in test [2] (setting [10]), 10 to 100 nM; in test [3] it was > 1000 nM; in test [4] it was 10 to 100 nM; in test [5], < 10 nM.

Consider `CC[C@@]1(O)C(=O)OCc2c1cc1n(c2=O)Cc2cc3c(CN(C)C)c(OC(=O)N(C)Cc4ccc(NC(=O)[C@H](CCCNC(N)=O)NC(=O)[C@@H](NCCCCCCN(C)c5ccc([C@H]6C[C@@]7(C)[C@@H](CC[C@]7(OC(C)=O)C(C)=O)[C@@H]7CCC8=CC(=O)CCC8=C76)cc5)C(C)C)cc4)ccc3nc2-1` [Compound No. 60], for which the concentration for half-maximal inhibition (IC50) in test [1] (read-out: LNCap (IC50, nM)) is > 1000 nM; in test [2] (read-out: T47D (IC50, nM)), > 1000 nM; in test [4], 10 to 100 nM; in test [6], > 1000 nM; in test [5], < 10 nM.

Turning to `CC[C@@]1(O)C(=O)OCc2c1cc1n(c2=O)Cc2cc3c(CN4CCN(CC5CCN(c6ccc(C(=O)N[C@H]7CC[C@H](N(C)c8ccc(C#N)c(Cl)c8)CC7)nn6)CC5)CC4)c(OC)ccc3nc2-1` [Compound 40, N-((1r,4r)-4-((3-chloro-4-cyanophenyl)(methyl)amino)cyclohexyl)-6-(4-((4-(((S)-4-ethyl-4-hydroxy-9-methoxy-3,14-dioxo-3,4,12,14-tetrahydro-1H-pyrano[3′,4′:6,7]indolizino[1,2-b]quinolin-10-yl)methyl)piperazin-1-yl)methyl)piperidin-1-yl)pyridazine-3-carboxamide formic acid salt], the IC50 in test [1] (setting [9]) was 101 to 1000 nM; in test [2] (setting [10]) it was 10 to 100 nM; in test [3] it was 101 to 1000 nM; in test [4], 10 to 100 nM; in test [6] it was > 1000 nM.

With `CC[C@@]1(O)C(=O)OCc2c1cc1n(c2=O)Cc2c-1nc1cc(F)c(C)c3c1c2[C@@H](N(C)C(=O)COCCC(=O)N1CCC(CN(C)c2ccc([C@H]4C[C@@]5(C)[C@@H](CC[C@]5(OC(C)=O)C(C)=O)[C@@H]5CCC6=CC(=O)CCC6=C54)cc2)CC1)CC3` [Compound 54], the IC50 in test [1] (setting [9]) was 10 to 100 nM; in test [2] (setting [10]), 101 to 1000 nM; in test [3] it was 101 to 1000 nM.

For `CC[C@@]1(O)C(=O)OCc2c1cc1n(c2=O)Cc2cc3c(CN(C)C)c(OC(=O)N4C[C@H](C)N(C(=O)C5CCN(c6ccc(C(=O)N[C@H]7CC[C@H](Oc8ccc(C#N)c(Cl)c8C)CC7)nn6)CC5)C[C@H]4C)ccc3nc2-1` [Compound No. 21, (S)-10-((Dimethylamino)methyl)-4-ethyl-4-hydroxy-3,14-dioxo-3,4,12,14-tetrahydro-1H-pyrano[3′,4′:6,7]indolizino[1,2-b]quinolin-9-yl (2R,5S)-4-(1-(6-(((1r,4r)-4-(3-chloro-4-cyano-2-methylphenoxy)cyclohexyl)carbamoyl)pyridazin-3-yl)piperidine-4-carbonyl)-2,5-dimethylpiperazine-1-carboxylate Formate], the IC50 was 10 to 100 nM in test [1] (read-out: LNCap (IC50, nM)); 101 to 1000 nM in test [7]; > 1000 nM in test [3]; < 10 nM in test [4]; > 1000 nM in test [6]; > 1000 nM in test [8]. Moreover, the IC50 in test [5] was > 1000 nM.
